Experimental findings from patent US11084823B2, “Substituted pyrrolo[2,1-f][1,2,4]triazines as kinase inhibitors” (Daewoong Pharmaceutical Co., Ltd., priority 2017, dated 2021) are described below.

The target of test [1] is Recombinant purified human JAK3 (Homo sapiens (Human), UniProt P52333). Put plainly: JAK3 kinase inhibitory activity, ADP-Glo kinase assay kit (Promega V9441). Type of test: biochemical. Particulars: ATP 5 uM, 4 ng JAK3 per reaction, 1 hour at 30° C., chemiluminescence. Here is the method:
(§1) JAK3 and BTK kinase inhibitory activities were measured for the compounds prepared in the above Examples through in vitro analysis on the ADP Glow (Glo) platform.
(§2) Specifically, the inhibitory activities of JAK3 and BTK kinase were measured using a JAK3 kinase assay kit (Promega, V9441) and a BTK kinase assay kit (Promega, V9071) which were purchased from Promega. Recombinant purified human JAK3 and BTK were diluted with 1× kinase reaction buffer (JAK3: 40 mM Tris-Cl, pH 7.5, 20 mM MgCl2, 0.1 mg/mL BSA and 50 uM DTT/BTK: 40 mM Tris-Cl, pH 7.5, 20 mM MgCl2, 0.1 mg/mL BSA, 2 mM MnCl2 and 50 uM DTT) and added to a 96 well plate (JAK3: final concentration of 4 ng per reaction/BTK: final concentration of 8 ng per reaction). […] After incubation (30° C.) for 1 hour, equivalent volume (25 uL per reaction) of ADP Glo was added and incubated (30° C.) for 40 minutes at room temperature. Then, a kinase detection reagent (50 uL per reaction) was added and incubated (30° C.) for 30 minutes at room temperature. The kinase activity was measured by chemiluminescence according to the instructions of ADP Glo kinase assay kit, and the inhibitory activity of the compounds according to the present invention was calculated.
A general note: ADP-Glo first removes unused ATP, then detects ADP through luciferase.

The target of test [2] is Recombinant purified human BTK (Homo sapiens (Human), UniProt Q06187). Put plainly: BTK kinase inhibitory activity, ADP-Glo kinase assay kit (Promega V9071). Type of test: biochemical. The conditions noted are these: ATP 10 uM, 8 ng BTK per reaction, 1 hour at 30° C., chemiluminescence. On the procedure:
as §1, §2

Sequence of Recombinant purified human BTK (Q06187 whole entry): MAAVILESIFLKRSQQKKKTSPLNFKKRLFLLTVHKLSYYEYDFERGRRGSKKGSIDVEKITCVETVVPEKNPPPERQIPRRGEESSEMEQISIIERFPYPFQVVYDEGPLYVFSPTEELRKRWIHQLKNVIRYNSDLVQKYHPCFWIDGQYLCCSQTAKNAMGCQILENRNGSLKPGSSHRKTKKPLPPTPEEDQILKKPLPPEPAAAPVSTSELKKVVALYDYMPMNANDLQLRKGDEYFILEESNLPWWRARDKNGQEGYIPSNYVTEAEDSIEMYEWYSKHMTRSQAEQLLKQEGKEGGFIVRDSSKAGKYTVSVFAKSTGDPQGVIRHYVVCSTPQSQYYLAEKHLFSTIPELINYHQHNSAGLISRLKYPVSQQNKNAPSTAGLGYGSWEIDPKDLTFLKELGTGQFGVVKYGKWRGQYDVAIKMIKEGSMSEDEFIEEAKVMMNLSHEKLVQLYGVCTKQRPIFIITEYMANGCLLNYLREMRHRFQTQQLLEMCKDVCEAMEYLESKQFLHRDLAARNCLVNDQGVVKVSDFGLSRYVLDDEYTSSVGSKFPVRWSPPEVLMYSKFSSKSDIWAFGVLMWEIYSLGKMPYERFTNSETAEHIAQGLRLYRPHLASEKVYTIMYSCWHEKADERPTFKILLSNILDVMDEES
Sequence of Recombinant purified human JAK3 (P52333 whole entry): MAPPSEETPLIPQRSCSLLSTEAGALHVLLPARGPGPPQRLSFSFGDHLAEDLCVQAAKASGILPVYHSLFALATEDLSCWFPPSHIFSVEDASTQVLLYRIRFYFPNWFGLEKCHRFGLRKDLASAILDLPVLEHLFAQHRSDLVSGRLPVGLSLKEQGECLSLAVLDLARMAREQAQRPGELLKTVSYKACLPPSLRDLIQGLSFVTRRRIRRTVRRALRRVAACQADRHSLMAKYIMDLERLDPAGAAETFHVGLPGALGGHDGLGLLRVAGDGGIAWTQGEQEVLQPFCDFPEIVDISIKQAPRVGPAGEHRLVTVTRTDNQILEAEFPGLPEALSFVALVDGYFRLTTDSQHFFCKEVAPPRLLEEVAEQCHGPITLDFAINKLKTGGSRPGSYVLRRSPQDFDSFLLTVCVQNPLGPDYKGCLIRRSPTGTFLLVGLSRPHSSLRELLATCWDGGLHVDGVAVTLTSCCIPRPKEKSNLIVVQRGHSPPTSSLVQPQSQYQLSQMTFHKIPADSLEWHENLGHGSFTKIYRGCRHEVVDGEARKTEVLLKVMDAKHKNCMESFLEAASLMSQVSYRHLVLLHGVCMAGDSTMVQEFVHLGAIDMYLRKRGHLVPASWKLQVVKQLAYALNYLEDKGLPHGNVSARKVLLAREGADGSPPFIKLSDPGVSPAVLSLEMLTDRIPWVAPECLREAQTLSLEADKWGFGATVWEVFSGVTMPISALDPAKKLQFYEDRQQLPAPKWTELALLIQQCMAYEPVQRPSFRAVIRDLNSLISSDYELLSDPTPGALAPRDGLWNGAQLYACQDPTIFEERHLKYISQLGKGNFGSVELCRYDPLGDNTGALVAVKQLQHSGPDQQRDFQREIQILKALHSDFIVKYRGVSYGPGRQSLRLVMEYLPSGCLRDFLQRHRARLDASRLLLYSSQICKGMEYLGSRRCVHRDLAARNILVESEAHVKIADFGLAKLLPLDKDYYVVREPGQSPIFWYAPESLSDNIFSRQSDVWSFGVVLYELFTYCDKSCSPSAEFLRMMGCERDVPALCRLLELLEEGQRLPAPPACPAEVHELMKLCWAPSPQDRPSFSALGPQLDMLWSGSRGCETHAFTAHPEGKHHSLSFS

One may read the IC50 as the concentration that inhibits the measured activity by half. Consider `CCC#CC(=O)Nc1ccc(F)c(Oc2nc(Nc3cnn(CC(F)F)c3)nn3cccc23)c1` [Example 49, N-(3-((2-((1-(2,2-difluoroethyl)-1H-pyrazol-4-yl)amino)pyrrolo[2,1-f][1,2,4]triazin-4-yl)oxy)-4-fluorophenyl)pent-2-ynamide], for which the IC50 in test [1] was greater than 0.4 µM; in test [2], 0.03 µM.
